Laboratory results published in patent US7026489B2, “Ketol fatty acid derivative and plant growth regulating agents” (Shiseido Company, Ltd., priority 2000, dated 2006).

Columns and labels:
[1] = tested on: morning glory (Pharbitis nil); test: Flower bud formation promoting activity of ketol fatty acid derivative II in morning glory (Example 6); format: in vivo; conditions: for flower bud formation promoting effect (number of flower buds per plant, % of control): sprayed at 1 μM onto cotyledons, 14 hours dark, counted on day 16, compound (4) at 1 μM and 100 μM, FIG. 6
Protocol: Seeds (9 g) of morning glory (variety name: Murasaki) were treated with concentrated sulfuric acid for 20 minutes, and then left to stand overnight under running water. Subsequently, the treated seeds were placed on wet sea sand for 24 hours, hilum side up, to thereby form roots. The seeds having roots were planted in sea sand to a depth of 1.5 cm to 2.0 cm, followed by culturing under continuous light (for approximately 5 days). The whole plants of the morning glory which had put forth leaves through the culture were transferred to a culture solution [KNO3 (250 mg), NH4NO3 (250 mg), KH2PO4 (250 mg), MgSO4.7H2O (250 mg), MnSO4.4H2O (1 mg), Fe-citrate n-hydrate (6 mg), H3BO3 (2 mg), CuSO4.5H2O (0.1 mg), ZnSO4.7H2O (0.2 mg), Na2MoO4.2H2O (0.2 mg), Ca(H2PO4)2.2H2O (250 mg)/distilled water (1,000 mL)]. While ketol fatty acid derivative (9) of the invention, which was obtained in the above Example 5, or test compounds such as Compound (4) was directly sprayed onto the cotyledons of the above morning glory plants grown in the culture system, the morning glory plants were subjected to treatment in the dark, then raised under the application of continuous light at 26° C. for 16 days. On day 16, the number of flower buds of the morning glory plants was counted (8 plants/group). The treatment in the dark was performed overnight (for 14 hours). In FIG. 6, along the X axis, (a) represents a control (a group of plants sprayed with distilled water), (b) represents a group of plants sprayed with ketol fatty acid derivative (9) (1 μM), (c) represents a group of plants sprayed with compound (4) (1 μM) and L-isoleusine (1 μM), (d) represents a group of plants sprayed with L-isoleusine (1 μM), (e) represents a group of plants sprayed with compound (4) (1 μM), and (f) represents a group of plants sprayed with compound (4) (100 μM). The Y axis represents flower bud formation promoting activity (shown as the percentage of each group to the control group (=100%) in terms of the number of flower buds per plant). […]

a broad range of plants = conditions: alone or in combination with norepinephrine; cited from earlier work
[2] = tested on: morning glory (Pharbitis nil); test: Flower bud formation promoting activity of compounds (4) and (5) in morning glory (Example 2); format: in vivo; conditions: sprayed onto cotyledons, 14 hours dark, counted on day 14; FIG. 3
Protocol: Seeds (9 g) of morning glory (variety name: Murasaki) were treated with concentrated sulfuric acid for 20 minutes, and then left to stand overnight under running water. Subsequently, the treated seeds were placed on wet sea sand for 24 hours, hilum side up, to thereby form roots. The seeds having roots were planted in sea sand to a depth of 1.5 cm to 2.0 cm, followed by culturing under continuous light (for approximately 5 days). The whole plants of the morning glory which had put forth leaves through the culture were transferred to a culture solution [KNO3 (250 mg), NH4NO3 (250 mg), KH2PO4 (250 mg), MgSO4.7H2O (250 mg), MnSO4.4H2O (1 mg), Fe-citrate n-hydrate (6 mg), H3BO3 (2 mg), CuSO4.5H2O (0.1 mg), ZnSO4.7H2O (0.2 mg), Na2MoO4.2H2O (0.2 mg), Ca(H2PO4)2.2H2O (250 mg)/distilled water (1,000 mL)]. Compound (4) or compound (5) was sprayed onto the cotyledons of the above morning glory plants at a spray volume of 2 mL per eight plants. The morning glory plants were subjected to treatment in the dark (14 hours), then raised under the application of continuous light at 26° C. for 14 days. On day 14, the number of flower buds of the morning glory plants was counted. As a control, distilled water was sprayed onto a group of plants. Compound (4) was sprayed at a concentration of 100 μM, whereas compound (5) was sprayed at concentrations of 0.001 μM to 100 μM.

## CC[C@H](C)[C@H](N)C(=O)O [L-isoleucine, reference compound]
[1]
  flower bud formation promoting effect (number of flower buds per plant, % of control): not observed

## CC/C=C\C/C=C\CC(=O)C(O)CCCCCCCC(=O)O (centres unmarked) [compound (4), 9-hydroxy-10-oxo-12(Z),15(Z)-octadecadienoic acid]
A broad range of plants
  flower bud formation promoting effect: exhibit flower bud formation promoting effect

## CC/C=C\C[C@H]1[C@H](CC(=O)[C@H](O)CCCCCCCC(=O)O)O[C@@]2(O)CC13C(=CC2=O)NC[C@H]3O [compound (5), (9R)-11-{(2′S,8′S,10′S,11′R)-2′,8′-dihydroxy-7′-oxo-11′-[(Z)-2-pentenyl]-9′-oxa-4′-azatricyclo[6.3.1.0^1.5]dodec-5′-en-10′-yl}-9-hydroxy-10-oxoundecanoic Acid]
[2]
  concentration exhibiting the same level of flower bud formation promoting activity as 100 μM compound (4): 0.01 µM

## CC/C=C\C/C=C\CC(=O)C(O)CCCCCCCC(=O)NC(C(=O)O)C(C)CC [ketol fatty acid derivative (9), N-[9-hydroxy-10-oxo-12(Z),15(Z)-octadecadienoyl]-L-isoleucine]
[1]
  flower bud formation promoting effect (number of flower buds per plant, % of control): equal or higher flower bud formation promoting effect as compared with compound (4)
[1]; sprayed at 0.1 to 100 μM, FIG. 7
  optimum administration concentration for flower bud formation promoting activity: approximately 1 μM
